Experimental data taken from patent publication US6274715A, “Tricyclic erythromycin derivatives” (priority 1997, dated 2001).
Converted amounts (≈) assume the structure as drawn.

Experiments:
Format in all cases: cell-based
[1] = tested on: STAPHYLOCOCCUS AUREUS ATCC 6538P; assay: In vitro antibacterial activity, MIC, BHI agar dilution; details: S. aureus ATCC 6538P, 35-37° C., 20 to 24 hours, unit assumed
[2] = tested on: STAPHYLOCOCCUS AUREUS A5177; assay: as above; details: S. aureus A5177, unit assumed
[3] = tested on: STAPHYLOCOCCUS AUREUS A-5278; assay: as above; details: S. aureus A-5278, unit assumed
[4] = tested on: STAPHYLOCOCCUS AUREUS CMX 642A; assay: as above; details: S. aureus CMX 642A, unit assumed
[5] = tested on: STAPHYLOCOCCUS AUREUS NCTC10649M; assay: as above; details: S. aureus NCTC10649M, unit assumed
[6] = tested on: STAPHYLOCOCCUS AUREUS CMX 553; assay: as above; details: S. aureus CMX 553, unit assumed
[7] = tested on: STAPHYLOCOCCUS AUREUS 1775; assay: as above; details: S. aureus 1775, unit assumed
[8] = tested on: STAPHYLOCOCCUS EPIDERMIDIS 3519; details: S. epidermidis 3519; BHI agar; unit assumed
[9] = tested on: EN[…] ATCC 8043; assay: In vitro antibacterial activity, MIC, BHI agar dilution; details: E. faecium ATCC 8043, unit assumed
In short: (§1)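 MIC was read visually as the lowest drug level with no growth, a slight haze or sparsely isolated colonies relative to a compound-free growth control. Organisms were spotted at 1:100 dilution (1:10 for slow-growing strains) onto Brain Heart Infusion agar containing serial compound dilutions and incubated 20 to 24 hours at 35-37° C.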

[10] = tested on: M[…] ATCC 4698; assay: as above; details: M. luteus ATCC 4698, unit assumed
In short: as §1

[11] = tested on: M[…] ATCC 9341; assay: as above; details: M. luteus ATCC 9341, unit assumed
In short: as §1

[12] = tested on: STR[…] 508; assay: as above; details: S. agalactiae CMX 508, unit assumed
In short: as §1

[13] = tested on: STREPTOCOCCUS BOVIS A-5169; assay: as above; details: S. bovis A-5169, unit assumed
[14] = tested on: STREPTOCOCCUS PYOGENES EES61; assay: as above; details: S. pyogenes EES61, unit assumed
[15] = tested on: STREPTOCOCCUS PYOGENES 930; assay: as above; details: S. pyogenes 930, unit assumed
[16] = tested on: ESCHERICHIA COLI JUHL; details: E. coli JUHL; BHI agar; unit assumed
[17] = tested on: ESCHERICHIA COLI SS; assay: In vitro antibacterial activity, MIC, BHI agar dilution; details: E. coli SS, unit assumed
[18] = tested on: ESCHERICHIA COLI DC-2; assay: as above; details: E. coli DC-2, unit assumed
[19] = tested on: ESCHERICHIA COLI H560; assay: as above; details: E. coli H560, unit assumed
[20] = tested on: ESCHERICHIA COLI KNK 437; details: E. coli KNK 437; BHI agar; unit assumed
[21] = tested on: ENTEROBACTER AEROGENES ATCC 13048; assay: In vitro antibacterial activity, MIC, BHI agar dilution; details: E. aerogenes ATCC 13048, unit assumed
[22] = tested on: KLEBSIELLA PNEUMONIAE ATCC 8045; assay: as above; details: K. pneumoniae ATCC 8045, unit assumed
[23] = tested on: PROVIDENCIA STUARTII CMX 640; details: P. stuartii CMX 640; BHI agar; unit assumed
[24] = tested on: PSEUDOMONAS AERUGINOSA BMH10; assay: In vitro antibacterial activity, MIC, BHI agar dilution; details: P. aeruginosa BMH10, unit assumed
[25] = tested on: PSEUDOMONAS AERUGINOSA 5007; assay: as above; details: P. aeruginosa 5007, unit assumed
[26] = tested on: PSEUDOMONAS AERUGINOSA K799/WT; assay: as above; details: P. aeruginosa K799/WT, unit assumed
[27] = tested on: PSEUDOMONAS AERUGINOSA K799/61; assay: as above; details: P. aeruginosa K799/61, unit assumed
[28] = tested on: PSEUDOMONAS CEPACIA 296I; assay: as above; details: P. cepacia 296I, unit assumed
[29] = tested on: ACINETOBACTER CALCOACETICUS CMX 669; assay: as above; details: A. calcoaceticus CMX 669, unit assumed
[30] = tested on: PSEUDOMONAS AERUGINOSA DPHD-5263; assay: as above; details: P. aeruginosa DPHD-5263, unit assumed
[31] = tested on: PSEUDOMONAS AERUGINOSA DPHD-2862; assay: as above; details: P. aeruginosa DPHD-2862, unit assumed
[32] = tested on: CANDIDA ALBICANS CCH 442; assay: as above; details: C. albicans CCH 442, unit assumed
[33] = tested on: MYCOBACTERIUM SMEGMATIS ATCC 114; assay: as above; details: M. smegmatis ATCC 114, unit assumed
[34] = tested on: STREPTOCOCCUS PYOGENES PIU 2548; assay: as above; details: S. pyogenes PIU 2548, unit assumed

SMILES | MIC [1] [µg/mL] | MIC [2] [µg/mL] | MIC [3] [µg/mL] | MIC [4] [µg/mL] | MIC [5] [µg/mL] | MIC [6] [µg/mL] | MIC [7] [µg/mL] | MIC [8] [µg/mL] | MIC [9] [µg/mL] | MIC [10] [µg/mL] | MIC [11] [µg/mL] | MIC [12] [µg/mL] | MIC [13] [µg/mL] | MIC [14] [µg/mL] | MIC [15] [µg/mL] | MIC [16] [µg/mL] | MIC [17] [µg/mL] | MIC [18] [µg/mL] | MIC [19] [µg/mL] | MIC [20] [µg/mL] | also measured
CCC1OC(=O)C(C)C(=O)C(C)C(OC2OC(C)CC(N(C)C)C2O)C(C)(OC)CC(C)C2=NC(CN)CN3C(=O)OC1(C)C3C2C (stereo not drawn) [Example 16] | 0.2 (≈ 0.3 µM) | 0.39 (≈ 0.585 µM) | > 100 | 0.2 (≈ 0.3 µM) | 0.2 (≈ 0.3 µM) | 0.39 (≈ 0.585 µM) | > 100 | 0.2 (≈ 0.3 µM) | 0.2 (≈ 0.3 µM) | 0.2 (≈ 0.3 µM) | 0.02 (≈ 0.03 µM) | 0.05 (≈ 0.075 µM) | 0.02 (≈ 0.03 µM) | 0.01 (≈ 0.015 µM) | > 100 | 12.5 (≈ 18.7 µM) | 0.1 (≈ 0.15 µM) | 12.5 (≈ 18.7 µM) | 6.2 (≈ 9.3 µM) | 12.5 (≈ 18.7 µM) | MIC [21]: 12.5 µg/mL (≈ 18.7 µM); MIC [22]: 12.5 µg/mL (≈ 18.7 µM); MIC [23]: > 100 µg/mL; MIC [24]: 50 µg/mL (≈ 75 µM); MIC [25]: > 100 µg/mL; MIC [26]: 100 µg/mL (≈ 150 µM); MIC [27]: 0.39 µg/mL (≈ 0.585 µM); MIC [28]: > 100 µg/mL; MIC [29]: 12.5 µg/mL (≈ 18.7 µM); MIC [30]: > 100 µg/mL; MIC [31]: > 100 µg/mL; MIC [32]: > 100 µg/mL; MIC [33]: 1.56 µg/mL (≈ 2.34 µM)
CC[C@H]1OC(=O)[C@H](C)C(=O)[C@H](C)[C@@H](O[C@@H]2O[C@H](C)C[C@H](N(C)C)[C@H]2O)[C@](C)(OC)C[C@@H](C)C2=NC[C@H](COCc3ccc(F)cc3)N3C(=O)O[C@@]1(C)[C@H]3[C@H]2C [Example 71] | 0.1 (≈ 0.129 µM) | 0.1 (≈ 0.129 µM) | > 100 | 0.1 (≈ 0.129 µM) | 0.1 (≈ 0.129 µM) | 0.1 (≈ 0.129 µM) | > 100 | 0.1 (≈ 0.129 µM) | 0.05 (≈ 0.0644 µM) | 0.1 (≈ 0.129 µM) | 0.01 (≈ 0.0129 µM) | 0.01 (≈ 0.0129 µM) | 0.02 (≈ 0.0258 µM) | 0.01 (≈ 0.0129 µM) | 25 (≈ 32.2 µM) | 25 (≈ 32.2 µM) | 0.39 (≈ 0.503 µM) | 12.5 (≈ 16.1 µM) | 12.5 (≈ 16.1 µM) | 25 (≈ 32.2 µM) | MIC [34]: 0.39 µg/mL (≈ 0.503 µM); MIC [21]: 50 µg/mL (≈ 64.4 µM); MIC [23]: 100 µg/mL (≈ 129 µM); MIC [24]: 50 µg/mL (≈ 64.4 µM); MIC [25]: 100 µg/mL (≈ 129 µM); MIC [26]: 100 µg/mL (≈ 129 µM); MIC [27]: 0.78 µg/mL (≈ 1.01 µM); MIC [28]: 25 µg/mL (≈ 32.2 µM); MIC [29]: 12.5 µg/mL (≈ 16.1 µM); MIC [30]: > 100 µg/mL; MIC [31]: 100 µg/mL (≈ 129 µM); MIC [32]: > 100 µg/mL; MIC [33]: 0.2 µg/mL (≈ 0.258 µM)
